The target of one assay is HDAC3 (Homo sapiens, UniProt O15379). Briefly: HDAC enzyme inhibitory activity, FRET method. The class given is biochemical.
The next assay deals with 293T cell. Briefly: Inhibition of cell proliferation (CTG, intracellular ATP). The class given is cell-based. The following applies: Homo sapiens, HEK-293T, 72 h. On the procedure: (§1) Jurkat or 293T cells were seeded into a 96-well plate at 3000 cells/well. After overnight adherence culture, the serially diluted compound in DMSO was added. After 72 h, the intracellular ATP level was determined by CTG. The IC50 for the inhibition of cell proliferation by the compounds was calculated compared to the DMSO group. Table 7. Inhibitory activity of compounds of the present disclosure against Jurkat/293T cell proliferation (IC50, µM)

In a further assay the test system is Jurkat cell. The assay is described as above. It is filed as cell-based. To be noted: Homo sapiens, Jurkat, 72 h. On the procedure:
as §1

Another assay deals with HDAC9 (Homo sapiens, UniProt Q9UKV0). As to the kind of experiment: HDAC enzyme inhibitory activity, FRET method. The class given is biochemical. The following applies: Table 6; read-out: IC50 HDAC subtype 9.
Sequence of HDAC9 (Q9UKV0 whole entry, species assumed): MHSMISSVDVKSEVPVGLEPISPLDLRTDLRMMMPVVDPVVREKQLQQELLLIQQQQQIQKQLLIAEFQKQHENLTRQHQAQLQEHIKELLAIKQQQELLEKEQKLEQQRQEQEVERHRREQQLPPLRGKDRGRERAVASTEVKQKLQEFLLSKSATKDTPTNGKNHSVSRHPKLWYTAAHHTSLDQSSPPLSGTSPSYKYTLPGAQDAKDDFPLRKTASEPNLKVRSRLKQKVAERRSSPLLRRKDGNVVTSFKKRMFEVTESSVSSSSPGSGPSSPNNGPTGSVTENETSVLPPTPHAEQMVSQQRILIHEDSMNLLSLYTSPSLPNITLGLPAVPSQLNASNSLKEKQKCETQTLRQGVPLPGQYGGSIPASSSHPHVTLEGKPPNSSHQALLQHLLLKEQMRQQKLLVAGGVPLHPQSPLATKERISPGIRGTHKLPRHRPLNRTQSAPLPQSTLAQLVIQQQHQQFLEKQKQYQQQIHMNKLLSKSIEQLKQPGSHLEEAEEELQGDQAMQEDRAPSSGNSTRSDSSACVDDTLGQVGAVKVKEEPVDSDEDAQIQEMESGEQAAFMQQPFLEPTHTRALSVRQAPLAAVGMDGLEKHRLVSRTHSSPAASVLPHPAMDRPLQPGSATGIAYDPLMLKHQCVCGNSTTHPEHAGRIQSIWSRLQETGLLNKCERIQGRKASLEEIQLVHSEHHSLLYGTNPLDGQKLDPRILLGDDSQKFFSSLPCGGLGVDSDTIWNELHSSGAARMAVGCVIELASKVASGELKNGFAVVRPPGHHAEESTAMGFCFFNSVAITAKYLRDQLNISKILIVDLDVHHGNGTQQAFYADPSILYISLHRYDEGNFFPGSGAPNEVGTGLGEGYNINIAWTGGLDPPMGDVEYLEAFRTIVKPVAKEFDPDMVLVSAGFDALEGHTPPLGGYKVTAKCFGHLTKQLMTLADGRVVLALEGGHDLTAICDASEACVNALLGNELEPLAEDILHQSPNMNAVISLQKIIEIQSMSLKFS
A further assay addresses T1, HDAC11 (Homo sapiens, UniProt Q96DB2).
T1 sequence (Q96DB2 1-347): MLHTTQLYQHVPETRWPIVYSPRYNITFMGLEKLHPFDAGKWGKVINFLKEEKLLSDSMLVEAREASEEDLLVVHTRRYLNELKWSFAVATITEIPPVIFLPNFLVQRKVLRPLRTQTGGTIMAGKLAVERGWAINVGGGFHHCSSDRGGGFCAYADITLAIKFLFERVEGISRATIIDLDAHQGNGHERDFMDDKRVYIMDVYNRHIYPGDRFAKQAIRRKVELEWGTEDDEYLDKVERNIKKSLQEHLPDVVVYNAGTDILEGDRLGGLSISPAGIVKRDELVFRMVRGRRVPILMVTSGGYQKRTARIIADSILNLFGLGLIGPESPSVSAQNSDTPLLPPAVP
As to the kind of experiment: HDAC enzyme inhibitory activity, FRET method. The class given is biochemical. To be noted: Table 6; read-out: IC50 HDAC subtype 11.

Each structure is given as a SMILES string. pIC50: −log10 of the molar value. Read-outs that look alike come from different tables or passages of the source.

Sequence of HDAC3 (O15379 whole entry, species assumed): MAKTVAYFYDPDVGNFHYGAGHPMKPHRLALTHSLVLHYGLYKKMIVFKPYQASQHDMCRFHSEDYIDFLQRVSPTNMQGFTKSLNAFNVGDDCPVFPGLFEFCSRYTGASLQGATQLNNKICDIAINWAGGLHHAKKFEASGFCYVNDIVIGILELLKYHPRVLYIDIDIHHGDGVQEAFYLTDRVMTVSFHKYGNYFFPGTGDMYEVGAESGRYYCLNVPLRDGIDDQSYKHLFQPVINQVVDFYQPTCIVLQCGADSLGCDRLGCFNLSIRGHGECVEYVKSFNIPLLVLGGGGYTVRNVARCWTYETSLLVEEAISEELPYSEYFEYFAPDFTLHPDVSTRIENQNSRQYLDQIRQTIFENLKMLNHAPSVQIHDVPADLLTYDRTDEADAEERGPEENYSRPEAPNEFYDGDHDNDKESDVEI
Sequence of HDAC3 (Q9Y618 395-489 partner limits assumed, species assumed): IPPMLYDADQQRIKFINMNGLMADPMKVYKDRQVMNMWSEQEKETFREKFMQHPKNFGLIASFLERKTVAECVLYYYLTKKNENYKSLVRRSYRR
Protocol for HDAC11: (§2) The compounds of the present disclosure were assayed for enzyme inhibitory activity against various subtypes of HDAC enzymes by the FRET method. The various subtypes of HDAC enzymes were obtained either through purification or direct purchase of assay kits.
(§3) The specific method was as follows: The enzyme was added to a 384-well plate, and a reaction buffer was added to the control well. Serially diluted DMSO sample solutions were added to the reaction wells, and the plate was incubated at room temperature for 15 min. Then a chromogenic agent was added to stop the reaction, and fluorescence was generated. The fluorescence intensity was measured using an EnVision multi-label microplate reader (excitation: 355 nm, emission: 460 nm). The endpoint value was read after the color development reached stability. The inhibition IC50 of the compounds was calculated using GraphPad Prism4 software relative to DMSO.
Protocol for HDAC3: as §2, §3
Protocol for HDAC9: as §2, §3

`CS(C)(=O)=Nc1ccc(C(=O)Nc2cc(-c3ccc(F)cc3)ccc2N)cc1` [Compound 1, N-(4-Amino-4'-fluoro-[1,1'-biphenyl]-3-yl)-4-((dimethyl(oxo)-1^λ-6-sulfaneylidene)amino)benzamide]: the negative logarithm of the IC50 (pIC50) was under 5.30 at HDAC3 (Table 4, read-out: IC50 HDAC3); under 5.52 at HDAC3 (Table 5, read-out: IC50 HDAC3); 5.26 on HDAC3 (Table 6, read-out: IC50 HDAC subtype 3); under 5.00 in the assay with 293T cell; 6.19 in the assay with Jurkat cell; under 4.52 on HDAC9. Further, the pIC50 on HDAC11 is under 4.52.

Values taken from EP4714938A1, “HDAC1/2 SELECTIVE INHIBITOR AND USE THEREOF” (Wigen Biomedicine Technology (Shanghai) Co., Ltd., priority 2023, dated 2024).
